Results: paper PMC9468151, “Identification of a binding site on soluble RANKL that can be targeted to inhibit soluble RANK-RANKL interactions and treat osteoporosis” (Nature Communications, 2022)
Values joined by “and” are separate entries in the source; they are usually repeats but may differ in a detail not shown here. Identical values can stand only once.

System: T lymphocyte
Experiment: T lymphocyte cell proliferation assay (CFSE, CD4+/CD8+ flow cytometry)
Format: cell-based, human
Procedure: T lymphocyte cell proliferation assay was performed according to a reported method[58] with some modification. Briefly, 5 × 10^6 cells /mL cells were stained 2.5 μM CFSE (Tonbo Biosciences) and incubated at 37 °C for 12 min. Then washed and discarded the supernatant and adjusted the CFSE stained cell to 1.75 × 10^6 cells /mL. Cells were diluted in 1640 completed medium containing 5 μg/mL anti-CD3 antibody (Tonbo Biosciences) to 3 × 10^5 cells/mL and seed in a 96-well plate or 24-well plate that pre-packaged 0.4 μg/well anti-CD28 antibody and 1.6 μg anti-CD28 antibody (24-well) (Tonbo Biosciences). Cells were then cultured for 3 days, 9 days or 12 days. Subsequently, the proportion of CD4^+ and CD8^+ cells was determined by flow cytometry (Beckman Coulter, FC500) according to manufacturer’s instruction of PE-Cyanine7 anti-Human CD8a and PE anti-Human CD4 antibodies (Tonbo Biosciences). Data analyzing was performed by using CXP software (Beckman Coulter, Supplementary Fig. 8).

[1] = Healthy donor 1, 12 day, S3-15 1
[2] = Healthy donor 1, 12 day, S3-15 5
[3] = Healthy donor 1, 12 day, S3-15 10
[4] = Healthy donor 2, 9 day, S3-15 0.2
[5] = Healthy donor 2, 9 day, S3-15 1
[6] = Healthy donor 2, 9 day, S3-15 5
[7] = Healthy donor 2, 9 day, S3-15 10
[8] = cancer patient donors 1, 3 day, S3-15 conc. 0.2
[9] = cancer patient donors 1, 3 day, S3-15 conc. 1
[10] = cancer patient donors 1, 3 day, S3-15 conc. 5
[11] = cancer patient donors 1, 3 day, S3-15 conc. 10
[12] = healthy donors 2, 9 day, S3-15 conc. 0.2
[13] = healthy donors 2, 9 day, S3-15 conc. 1
[14] = healthy donors 2, 9 day, S3-15 conc. 5
[15] = healthy donors 2, 9 day, S3-15 conc. 10

## CC(=O)/C(=N\Nc1ccccc1C(=O)O)C(=O)Nc1ccccn1 [S3-15]
[1]
  CD8+cells in CFSE-cells (%): 74.2% and 73.02% and 72.56% and 72.37%
  CFSE- cells in total cells (%): 15.48% and 17.29% and 17.32% and 15.2%
[2]
  CD4+cells in total cells (%): 25.95% and 25.52% and 26.76% and 24.64%
  CD8+ cells in total cells (%): 18.18% and 19.04% and 19.74% and 15.99%
  CD8+cells in CFSE-cells (%): 75% and 70.17% and 74.02% and 72.37%
  CFSE- cells in total cells (%): 16.98% and 16.53% and 18.76% and 15.2%
[3]
  CD4+cells in total cells (%): 24.55% and 25.9% and 26.53% and 28.64%
  CD8+ cells in total cells (%): 25.46% and 18.53% and 18.26% and 16.63%
  CD8+cells in CFSE-cells (%): 73.6% and 72.27% and 73.36% and 76.51%
  CFSE- cells in total cells (%): 23.52% and 17.38% and 18.28% and 16.8%
[4]
  CD8+ cells in total cells (%): 60.09% and 60.2% and 40.04%
  CD8+cells in CFSE-cells (%): 54.45% and 45.56% and 52.87%
  CFSE- cells in total cells (%): 42.85% and 34.53% and 42.91%
[5]
  CD8+ cells in total cells (%): 57.52% and 60.07% and 56.11%
  CD8+cells in CFSE-cells (%): 48.8% and 34.73% and 39.45%
  CFSE- cells in total cells (%): 48.46% and 65.6% and 38.41%
[6]
  CD8+ cells in total cells (%): 39.84% and 41.04% and 43.72%
  CD8+cells in CFSE-cells (%): 45.39% and 36.07% and 59.1%
  CFSE- cells in total cells (%): 43.47% and 38.16% and 54.05%
[7]
  CD8+ cells in total cells (%): 61.43% and 57.64% and 58.69%
  CD8+cells in CFSE-cells (%): 58.1% and 47.19% and 40.24%
  CFSE- cells in total cells (%): 51.79% and 37.98% and 32.24%
[8]
  CD4+cells in total cells (%): 12.08% and 10.6% and 16.64% and 9.84%
  CFSE-CD4+cells in CFSE-cells (%): 2.66% and 4.81% and 10.71% and 8.92%
[9]
  CD4+cells in total cells (%): 18.36% and 15% and 12.2% and 13.48%
  CFSE-CD4+cells in CFSE-cells (%): 2.71% and 4.16% and 9.18% and 4.63%
[10]
  CD4+cells in total cells (%): 12.53% and 13.43% and 14.21% and 19.52%
  CFSE-CD4+cells in CFSE-cells (%): 4.9% and 5.71% and 2.54% and 4.68%
[11]
  CD4+cells in total cells (%): 8.57% and 13.89% and 11.58% and 13%
  CFSE-CD4+cells in CFSE-cells (%): 6.23% and 7.1% and 4.66% and 4.48%
Healthy donors 1, 3 day, S3-15 conc. 0.2
  CD4+cells in total cells (%): 58.71% and 65.57% and 73.86% and 89.25%
Healthy donors 1, 3 day, S3-15 conc. 1
  CD4+cells in total cells (%): 88.98% and 73.53% and 85.9% and 87.87%
Healthy donors 1, 3 day, S3-15 conc. 5
  CD4+cells in total cells (%): 88.97% and 73.33% and 75.77% and 81.04%
Healthy donors 1, 3 day, S3-15 conc. 10
  CD4+cells in total cells (%): 84.3% and 76.41% and 71.29%
Healthy donors 1, 12 day, S3-15 conc. 0.2
  CFSE-CD4+cells in CFSE-cells (%): 11.71% and 10.81% and 13.35% and 13.65%
Healthy donors 1, 12 day, S3-15 conc. 1
  CFSE-CD4+cells in CFSE-cells (%): 10.81% and 12.31% and 11.84% and 10.58%
Healthy donors 1, 12 day, S3-15 conc. 5
  CFSE-CD4+cells in CFSE-cells (%): 11% and 11.24% and 11.79% and 10.58%
Healthy donors 1, 12 day, S3-15 conc. 10
  CFSE-CD4+cells in CFSE-cells (%): 15.92% and 12.12% and 12.19% and 12.32%
[12]
  CD4+cells in total cells (%): 20.78% and 19.93% and 21.03%
  CFSE-CD4+cells in CFSE-cells (%): 37.84% and 45.82% and 32.47%
[13]
  CD4+cells in total cells (%): 25.04% and 25.92% and 25.62%
  CFSE-CD4+cells in CFSE-cells (%): 42.79% and 60.67% and 51.42%
[14]
  CD4+cells in total cells (%): 24.48% and 26.48% and 22.29%
  CFSE-CD4+cells in CFSE-cells (%): 46.81% and 55.67% and 30.69%
[15]
  CD4+cells in total cells (%): 21.17% and 21.09% and 21.21%
  CFSE-CD4+cells in CFSE-cells (%): 34.98% and 45.24% and 51.76%
Human lymphocytes, in words
  lymphocyte proliferation: did not change lymphocyte proliferation
